Laboratory results from publication PMC7002685, “Inhibition of vascular calcification by inositol phosphates derivatized with ethylene glycol oligomers” (Nature Communications, 2020).
Values joined by “and” are separate entries in the source; they are usually repeats but may differ in a detail not shown here. Equal entries are not always repeated.

Tested on: transformation of CPP1 to CPP2 in pooled human serum
Assay: In vitro serum calcification propensity (T50) screening assay
Format: biochemical
Set-up: key to T50: T50 in minutes (time to 50% CPP phase transition)
Conditions: for T50: one value per experiment; for activity/unit mass: mean c350 x mw (Na salt); for concentration upon which a T50 of 350 min is reached (c350), mean: mean of n experiments; for Concentration at T50 = 350 min mean ± s.d. (n) (c350): pooled human serum, 10 mM calcium, 6 mM phosphate, 37 °C; for concentration upon which a T50 of 350 min is reached (c350), single experiment: one value per experiment (lab journal reference E05-E40); for c350: unit not printed in the sentence (equals mg/L column of rebuttal Table 1)
Protocol: The compounds were ranked for calcification inhibition activity using a nanoparticle-based test, developed for risk stratification, which measures the propensity for calcification in patient serum. […] The time, after which 50% of CPP phase transition occurred (T50), was assessed by time-resolved spectrophotometry at 550 nm (Supplementary Fig. 1a).
The screening assay was performed as described previously. In brief, pooled human serum (H4522, Sigma-Aldrich) stored at −20 °C was thawed at 37 °C, centrifuged (10,000 × g, and 4 °C, 30 min) (5427R, Eppendorf, Switzerland), and sterile filtered (0.22 μm filter, Millipore, Merck KGaA) to remove potential cryoprecipitates (cleared human serum). The calcium solution was 40 mM CaCl2 (102382, Merck KGaA) in HBS, pH 7.4 (RT) (100 mM HEPES (H3375, Sigma-Aldrich) and 140 mM NaCl (1734712, Fisher Scientific, Hampton, NH, USA)). […] All salt solutions and buffers were double sterile filtered (0.22 µm) and pre-warmed to 37 °C prior to use. […] The plate was sealed with an adhesive film and the absorption at 550 nm was measured every 3 min with 1 min in-between shaking for a total of 300 cycles at 37 °C using the infinite M200 microplate reader (Tecan, Männedorf, Switzerland). An A550 vs. time graph was generated and T50 (min) (time at half-maximum transition from CPP1 to CPP2) values were derived by sigmoidal curve fit using Prism 8 (nonlinear regression in the log(agonist) vs. response–variable slope (four parameter mode) using the robust fit fitting method, GraphPad Software, San Diego, CA, USA). Activities between compounds were compared by generating a T50 (min) vs. concentration (µM) graph, calculating nonlinear regression and deriving the concentration required to delay T50 to 350 min (c350) using a standard equation for the dose–response curve, Eq. (1), whereby x = [compound], y = time (min), bottom = baseline response, top = maximum response, T50 = [drug] that leads to half-maximum response, and the hill slope is a factor that describes the steepness of the curve.1 y= bottom+top - bottom/1+T50/x^hillslope.

| Compound | T50 (concentration 1 μM) | T50 (concentration 3 μM) | T50 (concentration 10 μM) | activity/unit mass [mg/L] | concentration upon which a T50 of 350 min is reached (c350), mean [µM] | Concentration at T50 = 350 min mean ± s.d. (n) (c350) | T50 (concentration 0.3 μM) | concentration upon which a T50 of 350 min is reached (c350), single experiment | further results |
| --- | --- | --- | --- | --- | --- | --- | --- | --- | --- |
| O=P1(O)OP(=O)(O)O[C@H]2[C@@H](O1)[C@@H]1OP(=O)(O)OP(=O)(O)O[C@H]1[C@@H]1OP(=O)(O)OP(=O)(O)O[C@@H]21 (racemic) [ITPP, myo-inositol trispyrophosphate] | 193.4 and 250.1 and 242.3 and 298 | 191.467 and 273.733 and 236.7 and 299.7 | 194.6 and 250.333 and 260.467 and 308.2 | 60.60 | > 100 | >100 (4) µM and >60.6 (4) mg/L | – | – | T50 (concentration 30 μM): 200.233 and 253.8 and 260.967; T50 (concentration 50 μM): 203.167; T50 (concentration 100 μM): 274.033 and 292.433 |
| COCCOCCO[C@@H]1[C@@H](OP(=O)(O)O)[C@H](OP(=O)(O)O)[C@@H](OP(=O)(O)O)[C@@H](OP(=O)(O)O)[C@H]1OP(=O)(O)O (racemic) [OEG2-IP5, (±)-6-O-(methoxy-diethyleneglycol)-myo-inositol-1,2,3,4,5-pentakis(phosphate)] | 261.7 and 258.567 and 225.033 | 295.2 and 270.867 and 244.067 | 440.033 and 391.7 and 340.167 | 7.10 | 7.9 | 7.9 ± 2.7 (3) µM and 7.1 ± 2.4 (3) mg/L | 233.1 and 222.8 and 210.3 | 5.5 µM and 7.4 µM and 10.7 µM | Concentration at T50 = 350 min mean ± s.d. (n) (c350) (listed as (±)-4-O-(methoxy-diethyleneglycol)-myo-inositol-1,2,3,5,6-pentakis(phosphate)): 7.9 ± 2.7 µM and 7.1 ± 2.4 mg/L; c350: 7.1 ± 2.4 |
| COCCOCCOCCOCCOCCOCCOCCO[C@@H]1[C@@H](OP(=O)(O)O)[C@H](OP(=O)(O)O)[C@@H](OP(=O)(O)O)[C@@H](OP(=O)(O)O)[C@H]1OP(=O)(O)O (racemic) [OEG7-IP5, (±)-6-O-(methoxy-heptaethyleneglycol)-myo-inositol-1,2,3,4,5-pentakis(phosphate)] | 229.7 and 230.533 and 222.7 | 271.4 and 260.7 and 241.467 | 480.067 and 432.633 and 427.367 | 7.56 | 6.7 | 6.7 ± 0.9 (3) µM and 7.6 ± 1.0 (3) mg/L | 220.667 and 225.7 and 210.2 | 5.8 µM and 6.8 µM and 7.6 µM | – |
| COCCOCCOCCOCCOCCOCCOCCOCCOCCOCCOCCO[C@@H]1[C@@H](OS(=O)(=O)O)[C@H](OP(=O)(O)O)[C@@H](OS(=O)(=O)O)[C@@H](OP(=O)(O)O)[C@H]1OS(=O)(=O)O (racemic) [OEG11-IP2S3, (±)-4-O-(methoxy-undecaethyleneglycol)-1,3,5-O-tris(sulfato)-myo-inositol-2,6-O-bis(phosphate)] | 217.567 and 236.467 and 212.467 | 261.167 and 253.1 and 226.6 | 303.9 and 300.967 and 303.767 and 294.6 | 22.87 | 18.6 | 18.6 ± 1.9 (5) µM and 22.9 ± 2.3 (5) mg/L | 256.3 | 16.2 µM and 19.4 µM and 17.1 µM and 19.2 µM and 20.9 µM | T50 (concentration 30 μM): 430.533 and 413.2 and 437.833 and 410.233; T50 (concentration 50 μM): 586.8 and 587.733 and 528.367 |
| COCCOCCOCCOCCOCCOCCOCCOCCOCCOCCOCCO[C@@H]1[C@@H](OP(=O)(O)O)[C@H](OP(=O)(O)O)[C@@H](OP(=O)(O)O)[C@@H](OP(=O)(O)O)[C@H]1OP(=O)(O)O (racemic) [OEG11-IP5, (±)-6-O-(methoxy-undecaethyleneglycol)-myo-inositol-1,2,3,4,5-pentakis(phosphate)] | 258.35 and 236.633 and 236.5 | 294.167 and 279.867 and 265.867 | 559.8 and 530.3 and 501.9 | 6.84 | 5.3 | 5.3 ± 0.7 (3) µM and 6.8 ± 0.9 (3) mg/L | 222.7 and 220.167 and 220.4 | 4.6 µM and 5.2 µM and 6.0 µM | – |
| COCCOCCOCCOCCOCCOCCOCCOCCOCCOCCOCCOCCO[C@@H]1[C@@H](OP(=O)(O)O)[C@H](OP(=O)(O)O)[C@@H](OP(=O)(O)O)[C@@H](OP(=O)(O)O)[C@H]1OP(=O)(O)O (racemic) [OEG12-IP5, (±)-6-O-(methoxy-dodecaethyleneglycol)-myo-inositol-1,2,3,4,5-pentakis(phosphate)] | – | – | – | 6.58 | 4.9 | 4.9 ± 0.6 (5) µM and 6.6 ± 0.9 (5) mg/L | – | 6.0 µM and 4.6 µM and 4.9 µM and 4.4 µM | T50 (concentration 0.246 μM): 217.233 and 225.267; T50 (concentration 0.82 μM): 258.4 and 206.7 and 222.1 and 217.5 and 256.667; T50 (concentration 1.6 μM): 275.15 and 220.7; T50 (concentration 2.46 μM): 260.5 and 282.167; T50 (concentration 4.1 μM): 332.45 and 282.35 and 325.75 and 315.4 and 340; T50 (concentration 8.2 μM): 493.7 and 442.3 and 481.45 and 498.1 and 499.967 |
| COCCOCCO[C@H]1[C@@H](OP(=O)(O)O)[C@H](OP(=O)(O)O)[C@@H](OP(=O)(O)O)[C@H](OP(=O)(O)O)[C@H]1OP(=O)(O)O [2-mono-OEG2-IP5, (±)-2-O-(methoxy-diethyleneglycol)-myo-inositol-1,2,3,5,6-pentakis(phosphate)] | – | – | – | – | – | 8.8 ± 0.1 µM | – | – | Concentration at T50 = 350 min mean ± s.d. (n) (c350) (listed as (±)-2-O-(methoxy-diethyleneglycol)-myo-inositol-1,2,3,5,6-pentakis(phosphate)): 7.9 ± 0.1 mg/L; c350: 7.9 ± 0.1 |
| COCCOCCO[C@H]1[C@H](OP(=O)(O)O)[C@H](OCCOCCOC)[C@H](OP(=O)(O)O)[C@@H](OCCOCCOC)[C@@H]1OP(=O)(O)O [(OEG2)3-IP3, 2,4,6-Tri-O-(methoxy-diethyleneglycol)-myo-inositol-1,3,5-tris(phosphate)] | 250.8 and 223.6 and 227.933 | 288.867 and 266.233 and 265.7 | 440.6 and 395.433 and 411.533 | 5.43 | 7.1 | 7.1 ± 0.9 (3) µM and 5.4 ± 0.7 (3) mg/L | – | 6.1 µM and 7.7 µM and 7.4 µM | T50 (concentration 5 μM): 325.1 and 295.733 and 294.5 |
| COCCOCCOCCOCCOCCOCCOCCO[C@@H]1[C@@H](OP(=O)(O)O)[C@H](OCCOCCOCCOCCOCCOCCOCCOC)[C@@H](OP(=O)(O)O)[C@@H](OP(=O)(O)O)[C@H]1OP(=O)(O)O [(OEG7)2-IP4, 4,6-Di-O-(methoxy-heptaethyleneglycol)-myo-inositol-1,2,3,5-tetrakis(phosphate)] | 243.55 and 226.667 and 233.367 | 297.4 and 271.533 and 282.8 | 754.35 and 624.433 and 692.333 | 5.96 | 4.5 | 4.5 ± 0.4 (3) µM and 6.0 ± 0.6 (3) mg/L | 217.433 and 203.2 and 207.5 | 4.1 µM and 4.9 µM and 4.5 µM | – |
| COCCOCCOCCOCCOCCOCCOCCO[C@H]1[C@H](OP(=O)(O)O)[C@H](OCCOCCOCCOCCOCCOCCOCCOC)[C@H](OP(=O)(O)O)[C@@H](OCCOCCOCCOCCOCCOCCOCCOC)[C@@H]1OP(=O)(O)O [(OEG7)3-IP3, 2,4,6-Tri-O-(methoxy-heptaethyleneglycol)-myo-inositol-1,3,5-tris(phosphate)] | 258.7 and 237.667 and 205.767 | 289.967 and 270.1 and 251.367 | 364.467 and 352.533 and 355.7 | 14.33 | 9.4 | 9.4 ± 0.6 (3) µM and 14.3 ± 1.0 (3) mg/L | – | 8.7 µM and 9.8 µM | T50 (concentration 5 μM): 303.667 and 291.2 and 260.633 |
